Test system: patients with moderate-to-severe AD
Test: MD-01: 24-week trial of memantine as monotherapy
Assay type: in vivo, human
Conditions: MD-01, week 24, ITT LOCF
Experimental: MD-01: MD-01 was a trial evaluating memantine as monotherapy for the treatment of patients with moderate-to-severe AD lasting for 24 weeks. About 350 patients were enrolled. Efficacy was evaluated using the Severe Impairment Battery (SIB), the Assessment of Daily Living (ADL) and the CIBIC-plus Scales.
The five memantine trials were evaluated using an analysis of patient for a population having an NPI agitation subscale score of >4 ([…]) and for a population having an NPI score of <4 ([…]). For each NPI population, changes in SIB, ADAS-cog and/or ADL were calculated using the least square (LS) mean difference for memantine and placebo-treated patients. Similarly, for each NPI population, the raw mean difference between memantine and placebo was calculated for the CIBIC-plus results.
For primary efficacy measurements the comparison between memantine and placebo was performed using two-way analysis of covariance (ANCOVA) with treatment group and center as the two factors, and the baseline scores as covariate. Both the LOCF imputation approach and the OC approach are performed at the end of the trials.
For secondary efficacy measurements, the comparison between memantine and placebo was performed using two-way analysis of covariance (ANCOVA) with treatment group and center as the two main effects, and the baseline scores as covariate. Descriptive statistics were calculated by Visit. Again, all analyses were performed using both the LOCF imputation approach and the OC approach.
Results of ANCOVA were summarized using least square (LS) means for each treatment group with corresponding standard error (SE), the between-treatment (2-24 week) difference in the least square means with corresponding 95% confidence interval, and the between-treatment p-value corresponds to the SAS Type III sum of squares.
In data Tables 5-19, the Overall Memantine versus Placebo columns of studies MD-01, MD-02, MD-10 and MD-12 used an ANCOVA model with baseline total score as covariate, treatment and study center as factors for SIB, ADL or ADAS-cog; CMH test controlling for study center for CIBIC-Plus. For MZ-9605, results are based on arithmetic means and the Wilcoxon-Mann-Whitney test. The Agitation score columns/NPI/antipsychotics columns, except CIBIS-Plus, calculated the p-values and LS mean differences within the subgroups from an ANCOVA model with baseline total score as covariate, subgroup (yes/no), treatment, and treatment by subgroup interactions as factors. For CIBIS-Plus, the p-values and raw mean differences within a subgroup were calculated using the CMH test controlling for study center.
Patients in the same five trials described above were stratified into two sub-groups in a second analysis, those with an NPI total score in the top quartile (≧75%), or those more severely impaired at baseline, and those with an NPI total score <75%, or less severe impairment at baseline. Similar to as in Example 1, results were evaluated using the change in SIB (cognitive endpoint), and change in ADCS-ADL (functional endpoint), using the LS mean. The change in the CIBIC-plus (global endpoint) was assessed using the raw mean.
A sub-population of patients from the five trials, MD-01, MD-02, MD-10, MD-12, and MZ-9605, were concurrently taking antipsychotics.

[1] = NPI total score ≧=75% (top quartile)
[2] = antipsychotics usage “YES” (N = n)
[3] = antipsychotics usage “YES” (N = y)
[4] = baseline NPI agitation score <4
[5] = baseline NPI agitation score ≧=4
[6] = baseline NPI agitation score ≧=4, listed as MEM

CC12CC3CC(C)(C1)CC(N)(C3)C2 [memantine, 1-amino-3,5-dimethyl adamantane]
ADCS-ADL (change) LS Mean Diff., MEM v. PLA (NPI total score <75%): 0.87
ADCS-ADL (change) mean (NPI total score <75%): −1.1
CIBIC-PLUS Raw Mean Diff., MEM v. PLA (NPI total score <75%): −0.2
CIBIC-PLUS mean (NPI total score <75%): 4.3
SIB (change) LS Mean Diff., MEM v. PLA (NPI total score <75%): 0.3
SIB (change) mean (NPI total score <75%): −1.2
ADCS-ADL (change) LS Mean Diff., MEM v. PLA [1]: −0.05
ADCS-ADL (change) mean [1]: −2.3
CIBIC-PLUS Raw Mean Diff., MEM v. PLA [1]: −0.2
CIBIC-PLUS mean [1]: 4.5
SIB (change) LS Mean Diff., MEM v. PLA [1]: 3.5
SIB (change) mean [1]: −2.8
ADCS-ADL (change) LS Mean Diff., MEM v. PLA [2]: 0.8
ADCS-ADL (change) mean [2]: −0.8
CIBIC-PLUS Raw Mean Diff., MEM v. PLA [2]: −0.26
CIBIC-PLUS mean [2]: 4.26
SIB (change) LS Mean Diff., MEM v. PLA [2]: 1.7
SIB (change) mean [2]: −0.5
ADCS-ADL (change) LS Mean Diff., MEM v. PLA [3]: −0.15
ADCS-ADL (change) mean [3]: −3.8
CIBIC-PLUS Raw Mean Diff., MEM v. PLA [3]: −0.1
CIBIC-PLUS mean [3]: 4.63
SIB (change) LS Mean Diff., MEM v. PLA [3]: −1.9
SIB (change) mean [3]: −6.2
ADCS-ADL (change) LS Mean Diff., MEM v. PLA [4]: 0.36
ADCS-ADL (change) mean [4]: −1.3
CIBIC-PLUS Raw Mean Diff., MEM v. PLA [4]: −0.2
CIBIC-PLUS mean [4]: 4.3
SIB (change) LS Mean Diff., MEM v. PLA [4]: −0.15
SIB (change) mean [4]: −1.9
ADCS-ADL (change) LS Mean Diff., MEM v. PLA [5]: 1.18
ADCS-ADL (change) mean [5]: −3.2
CIBIC-PLUS Raw Mean Diff., MEM v. PLA [5]: 0
CIBIC-PLUS mean [5]: 4.7
SIB (change) LS Mean Diff., MEM v. PLA [5]: 4.65
SIB (change) mean [5]: −1.0
ADCS-ADL (change) mean [6]: −2.2
CIBIC-PLUS Raw Mean Diff., MEM v. PLA [6]: 0.0
ADCS-ADL (change) LS Mean Diff., MEM v. PLA (overall): 0.70
ADCS-ADL (change) LS mean (overall): −2.00
CIBIC-PLUS LS mean (overall): 4.30
CIBIC-PLUS Raw Mean Diff., MEM v. PLA (overall): −0.30
SIB (change) LS Mean Diff., MEM v. PLA (overall): 0.60
SIB (change) LS mean (overall): −2.00

From patent publication US20050203191A1, “1-Aminocyclohexane derivatives for the treatment of agitation and other behavioral disorders, especially those associated with alzheimer's disease” (priority 2004, published 2005)
